Measured values published in paper PMC3019153 (PLoS ONE, 2011).
“And” between values parts separate entries of the source, which are not always exact repeats. Equal entries are not always repeated. “Also recorded” adds a separate entry of the source.

Tests used:
[1] = molecular target: T1, wild type mycobacterial dephosphocoenzyme A kinase (CoaE) (Mycobacterium tuberculosis, UniProt P9WPA3); format: biochemical
T1 sequence (P9WPA3 1-407): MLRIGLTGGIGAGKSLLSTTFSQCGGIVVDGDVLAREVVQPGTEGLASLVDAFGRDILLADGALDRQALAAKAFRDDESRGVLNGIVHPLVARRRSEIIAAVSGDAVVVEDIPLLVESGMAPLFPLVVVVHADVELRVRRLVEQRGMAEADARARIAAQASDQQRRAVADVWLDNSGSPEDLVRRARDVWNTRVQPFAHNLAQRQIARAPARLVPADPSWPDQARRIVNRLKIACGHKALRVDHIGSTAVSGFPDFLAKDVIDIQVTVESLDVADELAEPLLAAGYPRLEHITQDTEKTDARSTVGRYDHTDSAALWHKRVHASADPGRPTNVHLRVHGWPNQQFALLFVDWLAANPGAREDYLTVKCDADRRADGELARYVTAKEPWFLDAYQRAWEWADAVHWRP

[2] = molecular target: T2, mycobacterial dephosphocoenzyme A kinase K14A mutant (Mycobacterium tuberculosis, UniProt P9WPA3, K14A); format: biochemical
[3] = molecular target: mycobacterial dephosphocoenzyme A kinase G8A mutant (Mycobacterium tuberculosis, UniProt P9WPA3, G8A); format: biochemical
[4] = molecular target: mycobacterial dephosphocoenzyme A kinase R140A mutant (Mycobacterium tuberculosis, UniProt P9WPA3, R140A); format: biochemical
[5] = molecular target: T3, mycobacterial dephosphocoenzyme A kinase R140K mutant (Mycobacterium tuberculosis, UniProt P9WPA3, R140K); format: biochemical
[6] = molecular target: T4, mycobacterial dephosphocoenzyme A kinase D32A mutant (Mycobacterium tuberculosis, UniProt P9WPA3, D32A); format: biochemical
[7] = molecular target: T5, mycobacterial dephosphocoenzyme A kinase D32E mutant (Mycobacterium tuberculosis, UniProt P9WPA3, D32E); format: biochemical
[8] = molecular target: mycobacterial dephosphocoenzyme A kinase L114A mutant (Mycobacterium tuberculosis, UniProt P9WPA3, L114A); format: biochemical
[9] = molecular target: T1, wild type mycobacterial dephosphocoenzyme A kinase (CoaE); format: binding; details: pH 7.8
[10] = molecular target: T2, mycobacterial dephosphocoenzyme A kinase K14A mutant; format: binding; details: pH 7.8
[11] = molecular target: T3, mycobacterial dephosphocoenzyme A kinase R140K mutant; format: binding
[12] = molecular target: T5, mycobacterial dephosphocoenzyme A kinase D32E mutant; format: binding; details: pH 7.8
[13] = molecular target: T4, mycobacterial dephosphocoenzyme A kinase D32A mutant; format: binding; details: pH 7.8

SMILES | Kcat [2] | Km [2] [µM] | Kcat [3] [s⁻¹] | Km [3] [µM] | Kcat [4] | Kcat [6] [s⁻¹] | Kcat [7] [s⁻¹] | Km [7] [µM] | increase in the affinity of the mutant enzyme [7] [%] | Kcat [8] [s⁻¹] | Km [8] [µM] | ΔH [10] | ΔS [10] | also measured
CC(C)(COP(=O)(O)OP(=O)(O)OC[C@H]1O[C@@H](n2cnc3c(N)ncnc32)[C@H](O)[C@@H]1O)[C@@H](O)C(=O)NCCC(=O)NCCS [DCoA, dephosphocoenzyme A] | 1.532 min⁻¹ | 75.8 | 0.02572 | 37.2 | nr | 0.00171 | 0.0327 | 21.7 | 62.17 | 0.0569 | 80.9 | -3576 calM^−1 and −3576(±115.7) calM^−1 | 5.73(±0.37) calM^−1K^−1 | Kcat [1]: 0.0257 s⁻¹ and 0.0293 s⁻¹; Kcat [5]: 0.00755 s⁻¹; Kcat, % of the WT [5]: ~15%; Km [5]: 181 µM; Km [6]: 501 µM; increase in the Km [6]: 15 fold; ΔH [9]: −3719((±201.5) calM^−1; ΔS [9]: 6.32(±0.34) calM^−1K^−1; Ka [10]: 1.32(±1.45E3) M^−1*10^−4; binding of the leading substrate (in words) [11]: reasonably well; Ka ([11]; pH 7.8): 2.17(±1.23E3) M^−1*10^−4; ΔH ([11]; pH 7.8): −7723 calM^−1; ΔS ([11]; pH 7.8): −6.5((±0.49) calM^−1K^−1; Ka [12]: 2.12 (±2.61E3) M^−1*10^−4; ΔH [12]: −4355(±138.7) calM^−1; ΔS [12]: 4.94(±0.42) calM^−1K^−1; ΔH [13]: −1559(±72.9) calM^−1; ΔS [13]: −35.1(±0.98) calM^−1K^−1
Nc1ncnc2c1ncn2[C@@H]1O[C@H](COP(=O)(O)OP(=O)(O)OP(=O)(O)O)[C@@H](O)[C@H]1O [ATP] | 2.34 and 2.34 min^−1 | 86.7 | 0.04272 | 59.8 | nr | 0.014 | 0.0666 | 34.5 | 60.58 | 0.0192 | 63.9 | – | – | increase in the Km [2]: 50%; reduction in the Kcat [2]: 19%; Km [4]: nr; Kcat, % of the WT [6]: about 28%; binding to ATP (in words) [11]: poor binding; also recorded: very poor binding
Nc1ncnc2c1ncn2[C@@H]1O[C@H](CO[P@](=O)(O)O[P@](=O)(O)O[P@@](=O)(O)S)[C@@H](O)[C@H]1O [NHATP, ATP-γS] | – | – | – | – | – | – | – | – | – | – | – | −1826 calM^−1 and −1826(±195.7) calM^−1 | 13.8 calM^−1K^−1 and 13.8(±0.59) calM^−1K^−1 | N (binding) ([11]; pH 7.8): No binding
